The target of test [1] is T1, P2X7 (Homo sapiens, UniProt Q99572).
T1 sequence (Q99572 1-595): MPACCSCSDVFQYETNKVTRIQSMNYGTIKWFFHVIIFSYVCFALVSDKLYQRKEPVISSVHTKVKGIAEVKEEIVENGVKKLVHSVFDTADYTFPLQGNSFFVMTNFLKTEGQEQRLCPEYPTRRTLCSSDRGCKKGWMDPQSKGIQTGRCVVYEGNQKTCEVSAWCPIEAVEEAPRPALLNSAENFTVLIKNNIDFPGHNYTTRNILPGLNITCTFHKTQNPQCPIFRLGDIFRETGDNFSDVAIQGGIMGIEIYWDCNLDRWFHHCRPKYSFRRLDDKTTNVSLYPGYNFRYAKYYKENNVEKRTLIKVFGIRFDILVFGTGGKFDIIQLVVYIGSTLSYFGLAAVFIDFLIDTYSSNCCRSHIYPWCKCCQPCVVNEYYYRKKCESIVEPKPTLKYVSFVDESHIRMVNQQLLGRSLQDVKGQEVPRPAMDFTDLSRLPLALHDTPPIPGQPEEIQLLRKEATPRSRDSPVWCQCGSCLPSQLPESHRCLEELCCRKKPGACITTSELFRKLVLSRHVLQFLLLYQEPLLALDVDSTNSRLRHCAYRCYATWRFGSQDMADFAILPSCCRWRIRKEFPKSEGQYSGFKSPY
In words: Pore permeation assay (YO PRO dye uptake, BzATP-induced). Particulars: HEK293 transfected with human P2X7 receptor; YO PRO dye 1 uM, BzATP 10 uM; read-out: hP2X7 IC50. The test is classed as cell-based. Also noted: expressed in transfected cells; host or cells: HEK293. How it is done: Agonist-induced pore formation was determined by measuring cellular uptake of YO PRO fluorescence dye in HEK293 transfected with human P2X7 receptor. A HEK293 cell over expressing human P2X7 was harvested using HQTase reagent to detach the cells from T75 cm flask. The harvested cells are centrifuged @ 1200 rpm for 5 min at room temperature. The viability of cells was determined by Trypan blue dye and the cells are plated @ 10,000 cell/well in 50 ul volume in a 384 W BD Poly lysine coated plate and incubated overnight at 37 C. After overnight incubation, the culture medium was replaced with 35 ul/well assay buffer (5 mM KCl, 0.1 mM CaCl2, 5 mM Glucose, 10 mM HEPES buffer pH7.4 containing 125 mM NaCl. The serial dilution of compounds was performed using Bravo liquid handling instrument and the compounds were added using Bravo to the cell assay plate starting at 2.5 uM with three dilutions for 10 points. The positive control inhibitor compound was added to column 23. The plate was shaken slowly on a plate shaker for 10 seconds. The cells were incubated with the compound for 20 minutes at room temperature. After the incubation period, YO PRO dye (1 uM) along with BzATP (10 uM) were added to cells at 10 ul/well. The plate was centrifuged at 1000 rpm for 5 seconds and incubated at room temperature for 30 minutes. The uptake of YO PRO dye into the cells was measured using Envision Fluorescence plate reader instrument (Perkin Elmer).

Test [2] deals with T1, P2X7. In words: IL-1β release assay in THP-1 cells (sandwich ELISA). Set-up: release of mature IL-1β in the culture medium of THP-1 cells; endogenous in cells; host or cells: THP-1 cells (PMA-differentiated, LPS-primed). Particulars: PMA, LPS primed, stimulated with 0.8 mM BzATP, mature IL-1β release, read-out: hTHP-1/IL-ib IC50. It counts as cell-based. How it is done: The activation of P2X7 by ATP leads to a fast transient activation of cells resulting in influx of Ca^2+ followed by conversion of pro-IL-1β to active IL-1β. The functional activity of P2X7 compounds was measured by the release of mature IL-1β in the culture medium of THP-1 cells, detected by sandwich ELISA. Cells were maintained in complete growth medium (RPMI 1640+10% HI-FCS+2 mM L-glutamine+1×PS). […] THP-1 cells were harvested from the flask in 50 ml by centrifugation for 3 min at 100 g. The cells were resuspended to 2×10^5 cells/ml in medium supplemented with 0.5 μM PMA and incubated. The cells were washed and resuspended to 1.5×10^5 cells/ml in medium complemented with 10 ng/ml LPS, and the cells were primed for 4 h at 37° C., 5% CO2. After addition of 20 μL of prediluted test compounds, blank, standard and control reagents, cells were incubated for a further 20 min at 37° C. and stimulated with 0.8 mM BzATP for 30 minutes. The cells were centrifuged, supernatant was collected and the presence of mature IL-1β was detected using Dual human IL-1b kit following manufacturer's instruction. The tetrahydrobenzodiazepine analogs effectively modulated the activity of P2X7 in the cells as measured by the levels of pro-inflammatory cytokine IL-1β, which is released by the activation of P2X7 receptor.

Turning to `O=C(NCC1CCCC(F)(F)C1)c1c(Cl)ccc2nc(N3CC[C@@H](F)C3)ccc12` (stereo partly drawn) [Compound 1, 6-Chloro-2-((R)-3-fluoropyrrolidin-1-yl)-quinoline-5-carboxylic acid (3,3-difluoro-cyclohexylmethyl)-amide], the IC50 in test [1] was < 10 nM; in test [2] it was 10 to 100 nM.
With `C[C@H]1CCC[C@@](O)(CNC(=O)c2c(Cl)ccc3nc(N4CCCC4)ccc23)C1` [Compound 2, 6-Chloro-2-pyrrolidin-1-yl-quinoline-5-carboxylic acid ((1S,3S)-1-hydroxy-3-methyl-cyclohexylmethyl)-amide], in test [1], the IC50 is < 10 nM.
As for `O=C(NCC1CCCC(F)(F)C1)c1c(Cl)ccc2nc(N3CC[C@H](F)C3)ccc12` (stereo partly drawn) [Compound 3, 6-Chloro-2-((S)-3-fluoropyrrolidin-1-yl)-quinoline-5-carboxylic acid (3,3-difluoro-cyclohexylmethyl)-amide], the results for the IC50 in test [1] and in test [2] were < 10 nM and 101 to 500 nM, respectively.
Regarding `C[C@@H]1CCC[C@](O)(CNC(=O)c2c(Cl)ccc3nc(N4CC[C@H](N(C)C)C4)ccc23)C1` [Compound 4, 6-Chloro-2-((S)-3-dimethylamino-pyrrolidin-1-yl)-quinoline-5-carboxylic acid ((1R,3R)-1-hydroxy-3-methyl-cyclohexylmethyl)-amide], the IC50 in test [1] and in test [2] was < 10 nM in each case.
Take `C[C@@H]1CCC[C@](O)(CNC(=O)c2c(Cl)ccc3nc(N4CCC(F)C4)ccc23)C1` (stereo partly drawn) [Compound 5, 6-Chloro-2-(3-fluoropyrrolidin-1-yl)-quinoline-5-carboxylic acid ((1R,3R)-1-hydroxy-3-methyl-cyclohexylmethyl)-amide]: the IC50 is < 10 nM in test [1] and 10 to 100 nM in test [2].
As for `C[C@@H]1CCC[C@](O)(CNC(=O)c2c(Cl)ccc3nc(N4CCC(N(C)C)C4)ccc23)C1` (stereo partly drawn) [Compound 6, 6-Chloro-2-(3-dimethylamino-pyrrolidin-1-yl)-quinoline-5-carboxylic acid ((1R,3R)-1-hydroxy-3-methyl-cyclohexylmethyl)-amide], the IC50 was < 10 nM in test [1] and 10 to 100 nM in test [2].
Turning to `C[C@H]1CCC[C@@](O)(CNC(=O)c2c(Cl)ccc3nc(C4CCCC4)ccc23)C1` [Compound 7, 6-Chloro-2-cyclopentyl-quinoline-5-carboxylic acid ((1S,3S)-1-hydroxy-3-methyl-cyclohexylmethyl)-amide], in test [1], the IC50 was < 10 nM.
Consider `C[C@@H]1CCC[C@](O)(CNC(=O)c2c(Cl)ccc3nc(N4CC[C@@H](F)C4)ccc23)C1` [Compound 8, 6-Chloro-2-(3-(R)-fluoropyrrolidin-1-yl)-quinoline-5-carboxylic acid ((1R,3R)-1-hydroxy-3-methyl-cyclohexylmethyl)-amide], for which the IC50 in test [1] is < 10 nM; in test [2], 10 to 100 nM.
As for `CC1CCCC(O)(CNC(=O)c2c(Cl)ccc3nc(N4CC[C@@H](N(C)C)C4)ccc23)C1` (stereo partly shown) [Compound 14], the IC50 in test [1] is < 10 nM.
The same measure, in the same setting: the result for `C[C@@H]1CCC[C@](O)(CNC(=O)c2c(Cl)ccc3nc(C4CCCC4)ccc23)C1` [Compound 15, 6-Chloro-2-cyclopentyl-quinoline-5-carboxylic acid ((1R,3R)-1-hydroxy-3-methyl-cyclohexylmethyl)-amide] reads < 10 nM.
Same read-out and setting: next, `C[C@@H]1CCC[C@](O)(CNC(=O)c2c(Cl)ccc3nc(N4CCCC4)ccc23)C1` [Compound 16, 6-Chloro-2-pyrrolidin-1-yl-quinoline-5-carboxylic acid ((1R,3R)-1-hydroxy-3-methyl-cyclohexylmethyl)-amide]: < 10 nM.
As for `C[C@@H]1CCC[C@](O)(CNC(=O)c2c(Cl)ccc3nc(N4CC[C@@H](N(C)C)C4)ccc23)C1` [Compound 22, 6-Chloro-2-((R)-3-dimethylamino-pyrrolidin-1-yl)-quinoline-5-carboxylic acid ((1R,3R)-1-hydroxy-3-methyl-cyclohexylmethyl)-amide], the IC50 in test [1] fell in the range of 10 to 100 nM.
The same measure, in the same setting: the result for `O=C(NCC1CCC(F)(F)CC1)c1c(Cl)ccc2nc(C3CCCC3)ccc12` [Compound 43, 6-Chloro-2-cyclopentyl-quinoline-5-carboxylic acid (4,4-difluoro-cyclohexylmethyl)-amide] reads 10 to 100 nM; that for `O=C(NCC1CCC(F)(F)CC1)c1c(Cl)ccc2nc(C3CCNCC3)ccc12` [Compound 53, 6-Chloro-2-piperidin-4-yl-quinoline-5-carboxylic acid (4,4-difluorocyclohexylmethyl)-amide], 10 to 100 nM; that for `O=C(NCC1CCC(F)(F)CC1)c1c(Cl)ccc2nc(N3CCC(O)C3)ccc12` (stereo not shown) [Compound 57, 6-Chloro-2-(3-hydroxy-pyrrolidin-1-yl)-quinoline-5-carboxylic acid (4,4-difluoro-cyclo hexylmethyl)-amide], 10 to 100 nM.
Same read-out and setting: next, `CC(C)(C)OC(=O)N1CCC(c2ccc3c(C(=O)NCC4CCC(F)(F)CC4)c(Cl)ccc3n2)CC1` [Compound 71, 4-{6-Chloro-5-[(4,4-difluoro-cyclohexylmethyl)-carbamoyl]-quinolin-2-yl}-piperidine-1-carboxylic acid tert-butyl ester]: 10 to 100 nM; `O=C1C=C(c2ccc3c(C(=O)NCC4CCC(F)(F)CC4)c(Cl)ccc3n2)CC1` [Compound 72]: 10 to 100 nM; `COCCCNc1ccc2c(C(=O)NCC3CCC(F)(F)CC3)c(Cl)ccc2n1` [Compound 77, 6-Chloro-2-(3-methoxy-propylamino)-quinoline-5-carboxylic acid (4,4-difluoro-cyclohexyl methyl)-amide]: 101 to 500 nM.
Same read-out and setting: next, `O=C(NCC1CCC(F)(F)CC1)c1c(Cl)ccc2nc(N3CCCC(C(=O)O)C3)ccc12` (stereo not shown) [Compound 79, 1-{6-Chloro-5-[(4,4-difluoro-cyclohexylmethyl)-carbamoyl]-quinolin-2-yl}-piperidine-3-carboxylic acid]: 101 to 500 nM; `CCOC(=O)CCNc1ccc2c(C(=O)NCC3CCC(F)(F)CC3)c(Cl)ccc2n1` [Compound 81, 3-{6-Chloro-5-[(4,4-difluoro-cyclohexylmethyl)-carbamoyl]-quinolin-2-ylamino}-propionic acid ethyl ester]: 101 to 500 nM; `CN(C)C(=O)CCNc1ccc2c(C(=O)NCC3CCC(F)(F)CC3)c(Cl)ccc2n1` [Compound 82, 6-Chloro-2-(2-dimethylcarbamoyl-ethylamino)-quinoline-5-carboxylic acid (4,4-difluoro-cyclo hexyl methyl)-amide]: 101 to 500 nM.
In the case of `O=C(O)CCNc1ccc2c(C(=O)NCC3CCC(F)(F)CC3)c(Cl)ccc2n1` [Compound 83, 3-{6-Chloro-5-[(4,4-difluorocyclohexylmethyl)-carbamoyl]-quinolin-2-ylamino}-propionic acid], in test [1], the IC50 was > 1000 nM.

For the origin of these results see US9399623B2, “Quinoline derivatives and their use in neurodegenerative diseases” (Merck Patent GmbH, priority 2014, dated 2016).
